Assay results: US20240252677A1, “ONE-COMPONENT DELIVERY SYSTEM FOR NUCLEIC ACIDS” (The Trustees of the University of Pennsylvania, priority 2021, published 2024)

Assays:
HEK293T cells = assay: In vitro Luc-mRNA transfection, luciferase luminescence expression in HEK293T cells; format: cell-based, human; set-up: unit not given here; details: Table 16; HEK 293T cells, 125 ng/well, n=3
Summary of the method: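 HEK293T cells were transfected with nucleoside-modified firefly luciferase mRNA at 125 ng/well delivered in the test particles. TransIT and MC3-based LNPs at equal mRNA dose served as comparators. After 24 h (18-20 h in some runs) at 37° C the cells were lysed, and luciferase luminescence was read on a luminometer, in triplicate.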

BALB/c mice = assay: In vivo mRNA delivery in mice with DNPs, whole-body bioluminescence imaging (IVIS)
liver = assay: In vivo mRNA delivery, IVIS imaging of organs: liver; set-up: species or system mice; key to Organs with luminescence: liver: strong: Strong meant the luminescence intensity in that organ was relatively high, compared to other organs; weak: Weak meant the luminescence intensity in that organ was relatively low, compared to other organs; details: Table 17; mice, IVIS, 4-6 h after injection; intensity relative to other organs
[1] = Stability of DNPs by DLS after storage at 5° C.; format: physicochemical; set-up: key to Original size distribution type (DLS curve) / Size distribution type (DLS curve): U: DLS curve showed unimodal size distribution; B: DLS curve showed bimodal size distribution; M: DLS curve showed multimodal size distribution; details: for pH Sample: DNPs: IAJD 4.0 mg/mL + Luc-mRNA 0.1 mg/mL, injection in acetate buffer pH 4.00; for PDI / Size (d, nm) / Original size distribution type (DLS curve): IAJD 4.0 mg/mL + Luc-mRNA 0.1 mg/mL; for PDI / Size (d, nm): acetate buffer; for Original size distribution type (DLS curve): before storage, acetate buffer pH 4.00
Summary of the method: (§1)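 DNPs in acetate buffer sized by DLS after storage at 5 °C. Stability ranked Excellent, Good or Not stable according to retention, shrinkage or growth of original size and narrowing or broadening of size distribution.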

[2] = Stability of DNPs by DLS after storage at 5° C.; format: physicochemical; set-up: key: Excellent: the original sizes and distribution types remained almost the same after storage; Good: the original sizes and distribution types changed slightly (size difference was less than 100 nm) or the original size remained almost the same but the DLS curve showed more size distributions after storage
Summary of the method: as §1

[3] = Table 20, nonsymmetric IAJDs and MC3-Luc-mRNA

Structure (SMILES) | pH Sample [1] | Original size distribution type (DLS curve) [1] | Luminescence (HEK293T cells) | In vivo activity (total flux, p/s) (BALB/c mice; Table 19, nonsymmetric IAJDs) | In vivo activity (total flux, p/s) (BALB/c mice; [3]) | Organs with luminescence: liver (liver) | also measured
CCCCCCCCCCCCCCCCCOc1cc(COC(=O)CCCN2CCN(CCO)CC2)cc(OCCCCCCCCCCCCCCC)c1 [IAJD 152, 3-(Heptadecyloxy)-5-(pentadecyloxy)benzyl 4-(4-(2-hydroxyethyl)piperazin-1-yl)butanoate] | 4.45 | (B) | 88,202 | 1.97 × 10^7 p/s | – | Liver (weak), | Size distribution type (DLS curve) ([1]; after 35 days at 5° C.): (U); PDI ([1]; after 35 days at 5° C.): 0.286; Size (d, nm) ([1]; after 35 days at 5° C.): 253 nm; Ranking of stability ([2]; after 35 days at 5° C.): Excellent
CCCCCCCCCCCCCCCCCCOc1cc(COC(=O)CCCN2CCN(CCO)CC2)cc(OCCCCCCCCCCCCCCC)c1 [IAJD 154, 3-(Octadecyloxy)-5-(pentadecyloxy)benzyl 4-(4-(2-hydroxyethyl)piperazin-1-yl)butanoate] | 4.47 | (B) | 17,871 | 2.39 × 10^7 p/s | 2.39 × 10^7 p/s | liver (weak), | Size distribution type (DLS curve) ([1]; after 35 days at 5° C.): (B); PDI ([1]; after 35 days at 5° C.): 0.471; Size (d, nm) ([1]; after 35 days at 5° C.): 372 nm; Ranking of stability ([2]; after 35 days at 5° C.): Excellent
CCCCCCCCCCCCCCCOc1cc(COC(=O)CCCN2CCN(C)CC2)cc(OCCCCCCCCCCCCC)c1 [IAJD 145, 3-(pentadecyloxy)-5-(tridecyloxy)benzyl 4-(4-methylpiperazin-1-yl)butanoate] | 4.51 | (U) | 296 | 9.25 × 10^6 p/s | – | liver (weak), | Size distribution type (DLS curve) ([1]; after 27 days at 5° C.): (U); PDI ([1]; after 27 days at 5° C.): 0.330; Size (d, nm) ([1]; after 27 days at 5° C.): 189 nm; Ranking of stability ([2]; after 27 days at 5° C.): Excellent
CCCCCCCCCCCCCCCCOc1cc(COC(=O)CCCN2CCN(CCO)CC2)cc(OCCCCCCCCCCCCCCC)c1 [IAJD 150, 3-(Hexadecyloxy)-5-(pentadecyloxy)benzyl 4-(4-(2-hydroxyethyl)piperazin-1-yl)butanoate] | 4.51 | (B) | 134,225 | 3.47 × 10^7 p/s | – | liver (weak), | Size distribution type (DLS curve) ([1]; after 19 days at 5° C.): (U); PDI ([1]; after 19 days at 5° C.): 0.314; Size (d, nm) ([1]; after 19 days at 5° C.): 308 nm; Ranking of stability ([2]; after 19 days at 5° C.): Excellent
CCCCCCCCCCCOc1cc(COC(=O)CCCN2CCN(C)CC2)cc(OCCCCCCCCCC)c1 [IAJD 114, 3-(Decyloxy)-5-(undecyloxy)benzyl 4-(4-methylpiperazin-1-yl)butanoate] | 4.46 | (U) | 1,580 | 3.56 × 10^6 p/s | – | liver (weak), | Size distribution type (DLS curve) ([1]; after 75 days at 5° C.): (B); PDI ([1]; after 75 days at 5° C.): 0.369; Size (d, nm) ([1]; after 75 days at 5° C.): 107 nm; Ranking of stability ([2]; after 75 days at 5° C.): Good
CCCCCCCCCCCCCOc1cc(COC(=O)CCCN2CCN(CCO)CC2)cc(OCCCCCCCCCCC)c1 [IAJD 117, 3-(Tridecyloxy)-5-(undecyloxy)benzyl 4-(4-(2-hydroxyethyl)piperazin-1-yl)butanoate] | 4.40 | (B) | 516,522 | 8.64 × 10^6 p/s | – | liver (weak), | Size distribution type (DLS curve) ([1]; after 70 days at 5° C.): (B); PDI ([1]; after 70 days at 5° C.): 0.312; Size (d, nm) ([1]; after 70 days at 5° C.): 323 nm; Ranking of stability ([2]; after 70 days at 5° C.): Excellent
CCCCCCCCCCCCCOc1cc(COC(=O)CCCN2CCN(CCO)CC2)cc(OCC(CC)CCCC)c1 (stereo not shown) [IAJD 162, 3-((2-Ethylhexyl)oxy)-5-(tridecyloxy)benzyl 4-(4-(2-hydroxyethyl)piperazin-1-yl)butanoate] | 4.66 | (B) | 222,235 | 2.03 × 10^8 p/s | 2.03 × 10^8 p/s | liver (weak), | Size distribution type (DLS curve) ([1]; after 21 days at 5° C.): (B); PDI ([1]; after 21 days at 5° C.): 0.291; Size (d, nm) ([1]; after 21 days at 5° C.): 182 nm; Ranking of stability ([2]; after 21 days at 5° C.): Excellent

The next lines start with results.

pH Sample [1] | Original size distribution type (DLS curve) [1] | Structure (SMILES) | Luminescence (HEK293T cells) | In vivo activity (total flux, p/s) (BALB/c mice; Table 19, nonsymmetric IAJDs) | In vivo activity (total flux, p/s) (BALB/c mice; [3]) | Organs with luminescence: liver (liver) | also measured
4.50 | (U) | CCCCCCCCCCCOc1cc(COC(=O)CCCN2CCN(CCO)CC2)cc(OCC(CC)CCCC)c1 (stereo not shown) [IAJD 130, 3-((2-Ethylhexyl)oxy)-5-(undecyloxy)benzyl 4-(4-(2-hydroxyethyl)piperazin-1-yl)butanoate] | 76,345 | 1.18 × 10^8 p/s | 1.18 × 10^8 p/s | liver (weak), | Size distribution type (DLS curve) ([1]; after 62 days at 5° C.): (U); PDI ([1]; after 62 days at 5° C.): 0.282; Size (d, nm) ([1]; after 62 days at 5° C.): 149 nm; Ranking of stability ([2]; after 62 days at 5° C.): Excellent
4.97 | (U) | CCCCCCCCCCCCCOc1cc(COC(=O)CCCN2CCN(C)CC2)cc(OCC(CC)CCCC)c1 (stereo not shown) [IAJD 161, 3-((2-Ethylhexyl)oxy)-5-(tridecyloxy)benzyl 4-(4-methylpiperazin-1-yl)butanoate] | 128 | 8.48 × 10^7 p/s | – | liver (strong), | Size distribution type (DLS curve) ([1]; after 21 days at 5° C.): (U); PDI ([1]; after 21 days at 5° C.): 0.226; Size (d, nm) ([1]; after 21 days at 5° C.): 125 nm; Ranking of stability ([2]; after 21 days at 5° C.): Excellent
4.48 | (U) | CCCCCCCCCCCCCCCOc1cc(COC(=O)CCCN2CCN(C)CC2)cc(OCCCCCCCCCCCC)c1 [IAJD 143, 3-(Dodecyloxy)-5-(pentadecyloxy)benzyl 4-(4-methylpiperazin-1-yl)butanoate] | 71,851 | 1.28 × 10^7 p/s | – | liver (strong), | Size distribution type (DLS curve) ([1]; after 27 days at 5° C.): (U); PDI ([1]; after 27 days at 5° C.): 0.243; Size (d, nm) ([1]; after 27 days at 5° C.): 166 nm; Ranking of stability ([2]; after 27 days at 5° C.): Excellent
4.84 | (U) | CCCCCCCCCCCCCCOc1cc(COC(=O)CCCN2CCN(CCO)CC2)cc(OCCCCCCCCCCCCC)c1 [IAJD 172, 3-(Tetradecyloxy)-5-(tridecyloxy)benzyl 4-(4-(2-hydroxyethyl)piperazin-1-yl)butanoate] | 166,377 | 6.82 × 10^7 p/s | – | liver (weak), | Size distribution type (DLS curve) ([1]; after 14 days at 5° C.): (U); PDI ([1]; after 14 days at 5° C.): 0.219; Size (d, nm) ([1]; after 14 days at 5° C.): 225 nm; Ranking of stability ([2]; after 14 days at 5° C.): Excellent
4.52 | (B) | CCCCCCCCCCCCCCCOc1cc(COC(=O)CCCN2CCN(CCO)CC2)cc(OCCCCCCCCCC)c1 [IAJD 142, 3-(Decyloxy)-5-(pentadecyloxy)benzyl 4-(4-(2-hydroxyethyl)piperazin-1-yl)butanoate] | 463,750 | 2.51 × 10^7 p/s | – | liver (strong), | Size distribution type (DLS curve) ([1]; after 27 days at 5° C.): (U); PDI ([1]; after 27 days at 5° C.): 0.266; Size (d, nm) ([1]; after 27 days at 5° C.): 214 nm; Ranking of stability ([2]; after 27 days at 5° C.): Excellent
4.52 | (U) | CCCCCCCCCCCCCCCCCCOc1cc(COC(=O)CCCN2CCN(C)CC2)cc(OCCCCCCCCCCCCCCC)c1 [IAJD 153, 3-(Octadecyloxy)-5-(pentadecyloxy)benzyl 4-(4-methylpiperazin-1-yl)butanoate] | 8,860 | 7.33 × 10^7 p/s | 7.33 × 10^7 p/s | liver (strong), | Size distribution type (DLS curve) ([1]; after 35 days at 5° C.): (U); PDI ([1]; after 35 days at 5° C.): 0.232; Size (d, nm) ([1]; after 35 days at 5° C.): 222 nm; Ranking of stability ([2]; after 35 days at 5° C.): Excellent
